Data from patent publication US20140037659A1 (Yissum Research Development Company of the Hebrew …, priority 2011, published 2014).
Blank lines part the entries; values can stand above or below the molecule they belong to.

Assays:
MDSCs [1] = conditions: recently demonstrated, reference 30; cited from earlier work
MDSCs [2] = experiment: 5FU treatment of BCG-treated mice displaying chronic inflammation; assay type: in vivo
Method: Normal C57B116 mice repeatedly exposed to heat-killed BCG were used as the mouse model for chronic inflammation^1. BCG was administered by three subcutaneous injections at 1 wk intervals, 100 μg per animal/dose; the first two doses were administrated with IFA (Incomplete Freund's adjuvant), and subsequent injections included heat-killed BCG in PBS. Unless stated otherwise, splenocytes were collected 2-3 days after the last injection. Control mice remained untreated. For experiments with chicken OVA (Sigma) as antigen, the same protocol was maintained: For a Th1 response BCG was administered as above but with OVA. For a Th2 response, the first and second injections were with 100 μg OVA adsorbed to Al(OH)3 (alum; Thermo), and the third injection was with 100 μg OVA in PBS. Experimental groups included at least three mice, and each experiment was repeated at least three times.
BCG-treated mice received three i.p. injections of 5-fluorouracil (5FU); The first 5FU injection (1 mg/mouse) was given at the day of the second BCG treatment and the second 5FU injection was given four days later. The third 5FU injection (0.5 mg/mouse) was given at the day of the third BCG treatment.
All the antibodies were purchased from Biolegend.

[3] = target: T1, SNX9 (sorting nexin 9 protein), endogenous in EL4 T cell line (Mus musculus, UniProt Q91VH2 1-595); experiment: immunoprecipitation of EL4 lysate with anti-CD3δ, immunoblot for SNX9
T1 construct: Endogenous protein in a Triton X-100 lysate of EL4 T cells; also called sorting nexin-9 [Mus musculus]

[4] = splenic cells of BCG+5FU treated mice vs BCG treated mice, immunoblotting, FIG. 14A

T1 sequence (Q91VH2 whole entry): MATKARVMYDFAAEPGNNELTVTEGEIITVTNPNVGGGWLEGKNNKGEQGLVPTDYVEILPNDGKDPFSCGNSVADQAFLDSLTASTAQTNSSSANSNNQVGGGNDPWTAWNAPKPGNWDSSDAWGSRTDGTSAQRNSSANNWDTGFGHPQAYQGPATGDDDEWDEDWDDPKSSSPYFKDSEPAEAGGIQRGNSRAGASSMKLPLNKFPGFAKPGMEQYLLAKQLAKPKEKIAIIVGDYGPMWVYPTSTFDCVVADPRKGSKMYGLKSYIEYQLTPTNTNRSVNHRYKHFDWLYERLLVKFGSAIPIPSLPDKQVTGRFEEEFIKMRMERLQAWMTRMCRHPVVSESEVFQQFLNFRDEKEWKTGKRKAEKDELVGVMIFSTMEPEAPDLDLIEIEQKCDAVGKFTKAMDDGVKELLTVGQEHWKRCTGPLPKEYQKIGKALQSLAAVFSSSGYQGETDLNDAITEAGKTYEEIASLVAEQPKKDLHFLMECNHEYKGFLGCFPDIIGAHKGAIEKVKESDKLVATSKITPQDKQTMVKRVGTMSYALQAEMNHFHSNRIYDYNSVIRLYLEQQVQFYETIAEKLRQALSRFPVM

Molecule: O=c1[nH]cc(F)c(=O)[nH]1 [5FU, 5-fluorouracil]
effect on MDSCs (MDSCs [1]): cytotoxic effect on MDSCs
MDSCs levels (Gr1+Mac1+ double-positive cells) (MDSCs [2]; FACS of cells from BCG+5FU treated mice, FIG. 14B, C): Eliminates MDSCs
SNX9 expression levels (MDSCs [2]; [4]): recovery
ζ chain expression levels (MDSCs [2]; [4]): recovery

binding result [3]: no binding
B1: CD3δ of EL4 T cell line (receptor, UniProt P04235 22-173, looked up)
chain: FKIQVTEYEDKVFVTCNTSVMHLDGTVEGWFAKNKTLNLGKGVLDPRGIYLCNGTEQLAKVVSSVQVHYRMCQNCVELDSGTMAGVIFIDLIATLLLALGVYCFAGHETGRPSGAAEVQALLKNEQLYQPLRDREDTQYSRLGGNWPRNKKS
notes: Immunoprecipitated from EL4 lysate with anti-CD3δ antibody
